From patent US20180372720A1, “STABLE ISOTOPE LABELING KINETICS - SECONDARY ION MASS SPECTROMETRY (SILK SIMS) AND METHODS OF USE THEREOF” (Washington University, priority 2017, published 2018)

Columns and labels:
[1] = mouse, in vivo
Description: Mouse whole blood was spun at 1,000×g for 10 min and the plasma (supernatant) removed. Plasma proteins were precipitated with ice-cold acetone followed by de-lipidation with hexane and the aqueous fraction was dried in vacuo^1. 1:1 MTBSTFA/acetonitrile was added and samples were incubated 70° C. for 30 min. Duplicate 1 μL injections were made into an Agilent 5973 MSD mass spectrometer using a 30 μm×0.25 mm DB-5MS column (Agilent Technologies). […] The molar fraction of labeled leucine was calculated as: MFL=TTR/(1+TTR).

amyloid-β plaques = conditions: mouse, in vivo
Description: To assess the feasibility of detecting ^13C6-leucine isotopic enrichment in native amyloid-β plaques, tracer was administered to APP/PS1 mice at 3.5 months of age (pre-plaque pathology) for 10 and 5 weeks (FIG. 2A).
Two male double transgenic mice expressing chimeric mouse/human amyloid precursor protein (Mo/HuAPP695swe) and a mutant human presenilin 1 (PS1-dE9) both directed to CNS neurons (stock 34832-JAX) were kindly provide by Dr. Timothy Miller. Animals were given leucine-free chow (Catalog #1831936, Test Diet, St. Louis, Mo.) with 5 mg/mL ^12C6-leucine added to 2% sucrose-containing drinking water to control leucine intake for a one week acclimation period. After the one-week acclimation period, animals were given 5 mg/mL ^13C6- or ^12C6-leucine orally via 2% sucrose drinking water, averaging 36 mL of H2O/week (FIG. 2). Animals were 4 months old at the time of labeling and 6.5 months old at the end of labeling. Following the end of the labeling paradigm, animals were anesthetized with 65 mg/kg pentobarbital sodium and sacrificed by decapitation. Brains were removed and placed in 10% neutral-buffer formalin (Catalog #15740-01, EMS, Hatfield, Pa.). All animal procedures were conducted in accordance with the Washington University Animal Studies Committee, and are consistent with the National Institutes of Health (NIH) guidelines for the care and use of animals. Pieces of mouse brain were washed into NaHCa and incubated overnight at 4° C. The following morning, samples were stained with 1% osmium/NaHCa for 1 hour, washed 4 times over 1 hour and then en bloc stained with 1% uranyl acetate/H2O for 1 hour in the dark. Samples were rinsed with 3 exchanges of water, 10 minutes each and then processed for LR White embedding as described above with the addition of being gold-coated once on the Si wafer. Serial adjacent sections were place on glass microscope slides for toluidine blue staining for light microscopy.
Data was acquired on either a Cameca NanoSIMS 50 at WASHU (cells and human tissue) or NanoSIMS 50 L at Brigham and Women's Hospital (mouse tissue). Images of the B-cell hybridoma used to calculate that ^13C6-leucine standard curve were acquired at a 50 μm raster for 15 minutes at 1 ms/px and 65.5 s/plane (dwell time) for a total of 10 planes (i.e., cycles) per mass (256×256 px). APP/PS1 mouse brain tissue was acquired at a 17-60 μm raster for 11-87 minutes at 2 ms/px and 131 s/plane (dwell time) for a total of 5-40 cycles (i.e., planes) per mass (256×256 px).
Each analysis was performed in 24-hour blocks with measurements on SiC standard to assess instrument stability followed by measurements on an un-labeled control prior to SILK-SIMS data acquisition. Raw image data was imported into custom, in-house particle definition software, L'Image, to produce quantitative mass images of heavy and light isotopes, and determine where any isotopic anomalies may be located. The fractional uncertainty, f, of the heavy/light isotope ratios in each region-of-interest (ROI) was calculated in Excel as the sum in quadrature of the standard deviation of the average ratios measured for non-labeled material, σStd, and the Poisson errors, σROI, of the ROI itself, as given by the equation

Aβ proteoforms = conditions: Pt2, 8 days between labeling and expiration
Description: 1 g of frontal lobe tissue was homogenized in ice-cold 1×PBS with 0.05% CHAPS and centrifuged at 17,000×g for 30 min at 4° C. as previously described^4. The supernatant was spun for 1 hr at 100,000×g at 4° C. and the resulting pellet solubilize in 5 M guanidine overnight at 4° C. with rotation. Next, samples were spun for 20 min at 17,000×g at 4° C. and the supernatant was diluted 1:10 in 1×PBS in BSA-block tubes as previously described^4. Samples were immunoprecipitated (IP) with 50 uL of HJ5.1 anti-Aβ antibody (mid-domain epitope) coupled Dynabeads (Catalog #14311 D, Invitrogen, Carlsbad, Calif.) made following the manufacturer's instructions. After overnight incubation at 4° C. IPs were eluted in neat formic acid and dried in vacuo. Samples were resuspended in 50 mM TEABC (Catalog #17902, Sigma, St. Louis, Mo.), spiked with ^15N-Aβ internal standard, and digested overnight with 0.25 ng/μL Lys-N(Catalog #100965-1, Seikagaku Biobusiness Corp., Tokyo, Japan) at 4° C.
Samples were resuspended in 1% FA/10% ACN (v/v) with 20 nM BSA digest (Catalog #1863078, Pierce, Rockford, Ill.). Samples were analyzed in triplicate by nanoLC-MS/MS on an LTQ-Orbitrap Fusion (Thermo Fisher Scientific) in positive ion mode. Separations were performed using an online NanoAcquity UPLC (Waters, Milford, Mass.) using an ACQUITY UPLC HSS T3 (360 μm OD×75 μm ID) column packed with 10 cm C18 (1.8 μm, 100 Å, Waters) at 300 nL/min and heated to 65° C. Mobile phases were 0.1% FA in water (A) and 0.1% FA in ACN (B). Samples were eluted from the column with the gradient starting at 12% B, which was ramped to 32% B over 10 min and further increased to 90% B over 5 min and held for 1 min, before re-equilibration to 12% B over 2 min. Total run time, including column equilibration, sample loading, and analysis was 30 min. The mass spectrometer was operated in targeted MS2 mode. MS2 spectra were acquired in the Orbitrap (30,000 at m/z 400) in centroid mode using XCalibur, version 4.0 (Thermo Fisher Scientific). Ion injection times for the targeted MS2 scans for labeled and unlabeled respectively (in ms) were: Aβ mid-domain (54, 1080), Aβ40 (54, 540), and Aβ42 (54, 1080). The Orbitrap automatic gain control targets were set 5×10^5 for all proteoforms except Aβ42, which was set to 1×10^6. The targeted precursor ions were sequentially isolated in the quadrupole and fragmented in the Orbitrap using HCD (isolation width 1.6 Da, normalized collision energy 25%, activation Q 0.250, and activation time 10 ms). […]
Data (.raw files) were imported into a Skyline template containing the Lys-N C-terminal peptides of Aβ8, 40, 42 and the mid-domain. […] The sum of all transitions (b ions monitored for each parent peptide) were summed for unlabeled and SILK Aβ peptides and exported from Skyline to Excel. […]

Aβ plaques = conditions: in vivo
Description: Human cortical tissue samples were obtained from the Charles F. and Joanne Knight Alzheimer's Disease Research Center (ADRC) at Washington University School of Medicine in Saint Louis, Mo. Cognitive status was determined with a validated retrospective postmortem interview with an informant to establish the Clinical Dementia Rating (CDR). […] At autopsy, the left hemisphere was fixed in 10% neutral buffered formalin and stored at room temperature until further preparation.
Blocks were polymerized at 80° C. for 72 hrs. Tissue blocks were sectioned using a diamond ultrathin section knife on a Reichert Ultra-Cut E ultramicrotome at 300-500 nm thick. […]
Each analysis was performed in 24-hour blocks with measurements on SiC standard to assess instrument stability followed by measurements on an un-labeled control prior to SILK-SIMS data acquisition. Raw image data was imported into custom, in-house particle definition software, L'Image, to produce quantitative mass images of heavy and light isotopes, and determine where any isotopic anomalies may be located. The fractional uncertainty, f, of the heavy/light isotope ratios in each region-of-interest (ROI) was calculated in Excel as the sum in quadrature of the standard deviation of the average ratios measured for non-labeled material, σStd, and the Poisson errors, σROI, of the ROI itself, as given by the equation […]

## CC(C)C[C@H](N)C(=O)O [^13C6-leucine]
[1]
  Average Mol fraction labeled: 72.02%
amyloid-β plaques
  normalized tracer enrichment ratio: 0.015±2.22×10^−4
  raw tracer enrichment ratio: 0.015±1.56×10^−5
amyloid-β plaques; po
  ^13C/^12C isotope ratio: 2.7%
  ^13C/^12C ratio: 3.7%
  normalized ^13C^14N−/^12C^14N− ratio: 0.024±3.43×10^−4
  raw ^13C^14N−/^12C^14N− ratio: 0.023±1.41×10^−5
Aβ proteoforms
  detection of labeled Aβx-38: unable detect
  enrichment above isotopic background, Aβ mid-domain: 0.053%
  enrichment above isotopic background, Aβx-40: 0.112%
  enrichment above isotopic background, Aβx-42: 0.022%
Aβ plaques
  increase above the natural abundance of ^13C/^12C: 18%
  mean ratio of ^13C^14N−/^12C^14N−: 1.31%±0.05
